Experimental data reported in US20230346747A1, “DIALKYL T[…] THEIR […] USES” (CAAMTECH, INC., priority 2020, published 2023).

Columns and labels:
Type in all cases: in vitro ADME
[1] = In vitro plasma stability, mouse plasma; settings: C57 mouse plasma, 37° C.; for Percent remaining after 2 h incubation / k: 1.0 µM; for half-life at 1 µM: both sexes, pH 7.4, read-out: T½ (converted); for k: pH 7.4
Excerpt: (§1) Human plasma (Bioreclamation, Cat#: BRH470404, male:female=1:1,v:v); Rat plasma (HDB, Cat#: HDB_RsP_20221120, male:female=1:1,v:v); C57 Mouse plasma (HDB, Cat#: HDB_MsP_202201120, male:female=1:1,v:v); Male cynomolgus monkey plasma (RILD, Cat#: MP210107-P). Analytical grade inorganic salts were purchased from Sinopharm Chemical Reagent Co. (Shanghai, China). HPLC grade organic solvents were purchased from Sigma-Aldrich, USA. Distilled water, prepared from demineralized water, was used throughout the study.
(§2) Stock solution of test compound was provided in 100% DMSO. The stock solution for each compound was diluted into 100 µM with ACN(50%) and then diluted into plasma of different species (pH 7.4) to achieve a final concentration of 1.0 µM.
(§3) 1.0 µM of test compound in duplicate was incubated in plasma at 37° C. Aliquots of 50 µL or 80 µL sample were collected at 0, 0.25, 0.5, 1 and 2 h.
(§4) An aliquot of 50 µL samples were collected at various time points, and mixed with 300 µL of ice-cold 100% acetonitrile containing internal standard. After centrifuging the plate at 4000 rpm for 20 min, 50 µL of supernatants were added with 100 µL H2O, mix well and analyzed with UPLC-MS/MS.
(§5) A Waters liquid chromatographic system was used. Detection was performed on an API4000 Q-Trap and API5500 mass spectrometer equipped with TurbolonSpray (ESI) Interface (Applied Biosystems, Concord, Ontario, Canada). Analyst 1.5 and 1.6.2 software packages (Applied Biosystems) were used to control the LC-MS/MS system, as well as for data acquisition and processing.
(§6) Chromatographic separation was achieved on the Waters ACQUITY UPLC BEH C18 column (50*2.1 mm ID, 1.7 µm) and Thermo Scientific AccucoreTM PFP column(100*2.1 ID mm, 2.6 µm). The column temperature was maintained at ambient temperature (25° C.). The flow rate was maintained at 0.6 mL/min and the mobile phases used were according to Tables 5-7.
(§7) The peak area ratio of test compound to internal standard is plotted as a percentage of the relevant zero time point control (% Remained) for each reaction. The rate of metabolism (k) is the slope of the linear regression from log percentage remaining versus incubation time.

[2] = In vitro plasma stability, rat plasma; settings: SD rat plasma, 37° C.; for half-life at 1 µM: both sexes, pH 7.4, read-out: T½ (converted)
Excerpt: as §1, §2, §3, §4, §5, §6, §7

[3] = In vitro plasma stability, monkey plasma; settings: cynomolgus monkey plasma, 37° C.; for half-life at 1 µM: male, pH 7.4, read-out: T½ (converted)
Excerpt: as §1, §2, §3, §4, §5, §6, §7

[4] = In vitro plasma stability, human plasma; settings: 37° C.; for Percent remaining after 2 h incubation / k: 1.0 µM; for half-life at 1 µM: both sexes, pH 7.4, read-out: T½ (converted); for k: pH 7.4, slope of log % remaining versus incubation time
Excerpt: as §1, §2, §3, §4, §5, §6, §7

Compound	Percent remaining after 2 h incubation [1]	half-life at 1 µM [1]	Percent remaining after 2 h incubation ([2]; 1.0 µM)	half-life at 1 µM [2]	Percent remaining after 2 h incubation ([3]; 1.0 µM)	half-life at 1 µM [3]	Percent remaining after 2 h incubation [4]	half-life at 1 µM [4]	k [1]	k ([2]; 1.0 µM, pH 7.4)	k ([3]; 1.0 µM, pH 7.4)	T½ ([2]; 1.0 µM, pH 7.4)	T½ ([3]; 1.0 µM, pH 7.4)	k [4]
CC(=O)Oc1cccc2[nH]cc(CCN(C)C)c12 [Compound 4-AcO-DMT, 4-acetoxy-N,N-dimethyltryptamine]	0.00%	< 0.125 h	0.00%	< 0.125 h	0.00%	< 0.125 h	0.00%	< 0.125 h						
CCN(CC)CCOC(=O)c1ccc(N)cc1 [Procaine]	0.00%	< 0.125 h	52.0%	2 h	0.00%		0.00%	< 0.125 h	11.212	0.347	26.073			
COc1ccc([C@@H]2Sc3ccccc3N(CCN(C)C)C(=O)[C@@H]2OC(C)=O)cc1 [Diltiazem]	87.9%	10.6 h	78.8%	6.75 h	90.5%	12.8 h	80.5%	6.4 h						
CN(C)CCc1c[nH]c2cccc(OP(=O)(O)O)c12 [Psilocybin]	93.2%	91.5 h	113%		113%		19.4%	0.82 h	0.008	-0.066	-0.046	stable	stable	0.849
CN(C)CCc1c[nH]c2cccc(O)c12 [Psilocin]	89.2%	14.5 h	86.2%	7.54 h	92.8%	17.9 h	97.9%	20.5 h	0.048	0.092	0.039			0.034
